Structures are written as SMILES. Numbered stars: 1 amine (or outer) side, 2 acyl side, 3 side chain; on linkers, the order of the positions; unused ones are H or OH. Bridge positions count the residues as written; N and C are the ends. Square brackets hold non-standard residues; d marks the D form. Peptide text beside a SMILES is read from it. * marks the point of attachment. ξ: configuration not given here. Phe(4-COOH) = N[C@@H](Cc1ccc(C(=O)O)cc1)C(=O)O; d(γGlu) = O=C(O)[C@@H](CCC(=O)[*:2])N[*:1]; Bip = N[C@@H](Cc1ccc(-c2ccccc2)cc1)C(=O)O; Phe(3-Me) = Cc1cccc(C[C@H](N)C(=O)O)c1; hArg = N=C(N)NCCCC[C@H](N)C(=O)O; Cha = N[C@@H](CC1CCCCC1)C(=O)O; Cit = NC(=O)NCCC[C@H](N)C(=O)O; Thr(3ξ) = CC(O)[C@H](N)C(=O)O; dDab = NCC[C@@H](N)C(=O)O; hSer = N[C@@H](CCO)C(=O)O; Carboxymethyl = O=C(O)C*; Orn = NCCC[C@H](N)C(=O)O; Aun = NCCCCCCCCCCC(=O)O; Dab = NCC[C@H](N)C(=O)O; AEEA = NCCOCCOCC(=O)O

In the assay the target is T1, PD-1/PD-L1 interaction (PE-labeled human PD-L1-Ig binding to Jurkat cell line over-expressing human PD-1) (Homo sapiens, UniProt Q15116).
T1 construct: expressed in transfected cells; host or cells: Jurkat
T1 sequence (Q15116 25-288): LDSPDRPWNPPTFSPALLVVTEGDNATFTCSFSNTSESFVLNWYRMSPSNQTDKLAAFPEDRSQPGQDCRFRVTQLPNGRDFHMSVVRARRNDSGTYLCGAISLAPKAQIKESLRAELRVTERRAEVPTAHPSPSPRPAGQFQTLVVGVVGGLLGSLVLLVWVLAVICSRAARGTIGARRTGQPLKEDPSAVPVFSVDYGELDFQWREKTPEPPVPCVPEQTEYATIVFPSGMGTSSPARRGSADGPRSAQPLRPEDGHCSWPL
The experiment in a line: Jurkat-PD-1 Cell Binding High-Content Screening Assay (CBA). Type of assay: cell-based. The following applies: Jurkat cell line over-expressing human PD-1; PE-labeled PD-L1-Ig 20 nM final; read-out: Jurkat hPD1-PDL1 IC50. The essentials: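 Binding of fluorescent PD-L1-Ig (20 nM final) to Jurkat-PD-1 cells was measured by automated imaging after 1 h, following a 2 h compound pre-treatment at 37° C.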
`CC(C)C[C@H]1NC(=O)[C@H](CCCN)NC(=O)[C@H](CCCNC(N)=O)NC(=O)[C@H](Cc2ccc(-c3ccccc3)cc2)NC(=O)[C@H](C(C)C)NC(=O)[C@H](Cc2c[nH]c3ccccc23)NC(=O)[C@H](CC(=O)O)NC(=O)[C@H](Cc2ccc(OCC(=O)O)cc2)NC(=O)[C@H](CCCNC(=N)N)NC(=O)CSC[C@@H](C(=O)N[C@@H](CCC(=O)O)C(=O)NCCOCCOCC(=O)NCCCCCCCCCCC(=O)O)NC(=O)[C@H](C(C)O)NC(=O)[C@H](C(C)C)NC(=O)[C@H](CC2CCCCC2)NC(=O)[C@H](CCN)NC1=O` (stereo partly drawn) [Compound 3399] ({CH2CO}-RY(Carboxymethyl)DWV[Bip][Cit][Orn][dL][Dab][Cha]V[Thr(3ξ)]CE[AEEA][Aun]-OH; thioether N-14): the IC50 (commonly the concentration at which inhibition is half-maximal) was 19.4 nM.
As for `Cc1cccc(C[C@@H]2NC(=O)[C@H](CC(=O)O)NC(=O)[C@H](Cc3ccc(OCC(=O)O)cc3)NC(=O)[C@H](CCCNC(=N)N)NC(=O)CSC[C@@H](C(=O)NCCOCCOCC(=O)N[C@H](CCC(=O)NCCCCCCCCCCC(=O)O)C(=O)O)NC(=O)[C@H](C(C)O)NC(=O)[C@H](C(C)C)NC(=O)[C@H](CC3CCCCC3)NC(=O)[C@H](CCN)NC(=O)[C@@H](CC(C)C)NC(=O)[C@H](CCCN)NC(=O)[C@H](CCCNC(N)=O)NC(=O)[C@H](Cc3ccc(-c4ccccc4)cc3)NC(=O)[C@H](C(C)C)NC2=O)c1` (stereo partly drawn) [Compound 3400] ({CH2CO}-RY(Carboxymethyl)D[Phe(3-Me)]V[Bip][Cit][Orn][dL][Dab][Cha]V[Thr(3ξ)]C[AEEA][d(γGlu)][Aun]-OH; thioether N-14), the half-maximal inhibitory concentration (IC50) amounted to 8.7 nM.
Take `CC(=O)NCCCC[C@@H]1NC(=O)[C@H](C(C)C)NC(=O)[C@H](CC2CCCCC2)NC(=O)[C@H](CCN)NC(=O)[C@@H](CC(C)C)NC(=O)[C@H](CCCN)NC(=O)[C@H](Cc2ccc(O)cc2)NC(=O)[C@H](Cc2ccc(-c3ccccc3)cc2)NC(=O)[C@H](C(C)C)NC(=O)[C@H](Cc2c[nH]c3ccccc23)NC(=O)[C@H](CC(=O)O)NC(=O)[C@H](Cc2ccc(OCC(=O)O)cc2)NC(=O)[C@H](CCCNC(=N)N)NC(=O)CSC[C@@H](C(=O)NCCOCCOCC(=O)N[C@H](CCC(=O)NCCCCCCCCCCC(=O)O)C(=O)O)NC1=O` [Compound 3401] ({CH2CO}-RY(Carboxymethyl)DWV[Bip]Y[Orn][dL][Dab][Cha]VK(Ac)C[AEEA][d(γGlu)][Aun]-OH; thioether N-14): the IC50 was 6.9 nM.
Regarding `Cc1cccc(C[C@@H]2NC(=O)[C@H](CC(=O)O)NC(=O)[C@H](Cc3ccc(O)cc3)NC(=O)[C@H](CC(N)=O)NC(=O)CSC[C@@H](C(=O)NCCCCCCCCCCC(=O)O)NC(=O)[C@H](CCCNC(N)=O)NC(=O)[C@H](C(C)C)NC(=O)[C@H](CC3CCCCC3)NC(=O)[C@H](CCN)NC(=O)[C@@H](CC(C)C)NC(=O)[C@H](CCCN)NC(=O)[C@H](Cc3ccc(O)cc3)NC(=O)[C@H](Cc3ccc(-c4ccccc4)cc3)NC(=O)[C@H](C(C)C)NC2=O)c1` [Compound 3403] ({CH2CO}-NYD[Phe(3-Me)]V[Bip]Y[Orn][dL][Dab][Cha]V[Cit]C[Aun]-OH; thioether N-14), the IC50 came out at 10.7 nM.
With `CC(=O)NCCCC[C@@H]1NC(=O)[C@H](C(C)C)NC(=O)[C@H](CC2CCCCC2)NC(=O)[C@H](CCN)NC(=O)[C@@H](CC(C)C)NC(=O)[C@H](CCCN)NC(=O)[C@H](Cc2ccc(O)cc2)NC(=O)[C@H](Cc2ccc(-c3ccccc3)cc2)NC(=O)[C@H](C(C)C)NC(=O)[C@H](Cc2c[nH]c3ccccc23)NC(=O)[C@H](CC(=O)O)NC(=O)[C@H](Cc2ccc(C(=O)O)cc2)NC(=O)[C@H](Cc2ccc(OCC(=O)O)cc2)NC(=O)CSC[C@@H](C(=O)N[C@H](CCN)C(=O)NCCCCCCCCCCC(=O)O)NC1=O` [Compound 3404] ({CH2CO}-Y(Carboxymethyl)[Phe(4-COOH)]DWV[Bip]Y[Orn][dL][Dab][Cha]VK(Ac)C[dDab][Aun]-OH; thioether N-14), the IC50 was 15 nM.
As to `CC(C)C[C@H]1NC(=O)[C@H](CCCN)NC(=O)[C@H](Cc2ccc(O)cc2)NC(=O)[C@H](Cc2ccc(-c3ccccc3)cc2)NC(=O)[C@H](C(C)C)NC(=O)[C@H](Cc2c[nH]c3ccccc23)NC(=O)[C@H](CC(=O)O)NC(=O)[C@H](Cc2ccc(OCC(=O)O)cc2)NC(=O)[C@H](CCCNC(=N)N)NC(=O)CSC[C@@H](C(=O)N[C@@H](CCN)C(=O)NCCCCCCCCCCC(=O)O)NC(=O)[C@H](CCC(N)=O)NC(=O)[C@H](C(C)C)NC(=O)[C@H](CC2CCCCC2)NC(=O)[C@H](CCN)NC1=O` [Compound 3405] ({CH2CO}-RY(Carboxymethyl)DWV[Bip]Y[Orn][dL][Dab][Cha]VQC[Dab][Aun]-OH; thioether N-14), the IC50 turned out to be 8.2 nM.
On to `CC(C)C[C@H]1NC(=O)[C@H](CCCN)NC(=O)[C@H](Cc2ccc(O)cc2)NC(=O)[C@H](Cc2ccc(-c3ccccc3)cc2)NC(=O)[C@H](C(C)C)NC(=O)[C@H](Cc2c[nH]c3ccccc23)NC(=O)[C@H](CC(=O)O)NC(=O)[C@H](Cc2ccc(OCC(=O)O)cc2)NC(=O)[C@H](CCCCNC(=N)N)NC(=O)CSC[C@@H](C(=O)N[C@@H](CCN)C(=O)NCCCCCCCCCCC(=O)O)NC(=O)[C@H](CCCNC(N)=O)NC(=O)[C@H](C(C)C)NC(=O)[C@H](CC2CCCCC2)NC(=O)[C@H](CCN)NC1=O` [Compound 3407] ({CH2CO}-[hArg]Y(Carboxymethyl)DWV[Bip]Y[Orn][dL][Dab][Cha]V[Cit]C[Dab][Aun]-OH; thioether N-14), for which the IC50 stood at 21.2 nM.
`CC(C)C[C@H]1NC(=O)[C@H](CCCN)NC(=O)[C@H](Cc2ccc(O)cc2)NC(=O)[C@H](Cc2ccc(-c3ccccc3)cc2)NC(=O)[C@H](C(C)C)NC(=O)[C@H](Cc2c[nH]c3ccccc23)NC(=O)[C@H](CC(=O)O)NC(=O)[C@H](Cc2ccc(OCC(=O)O)cc2)NC(=O)[C@H](CCCCNC(=N)N)NC(=O)CSC[C@@H](C(=O)N[C@@H](CCN)C(=O)NCCCCCCCCCCC(=O)O)NC(=O)[C@H](CCO)NC(=O)[C@H](C(C)C)NC(=O)[C@H](CC2CCCCC2)NC(=O)[C@H](CCN)NC1=O` [Compound 3408] ({CH2CO}-[hArg]Y(Carboxymethyl)DWV[Bip]Y[Orn][dL][Dab][Cha]V[hSer]C[Dab][Aun]-OH; thioether N-14): the half-maximal inhibitory concentration (IC50) was 20.9 nM.
Regarding `CC(=O)NCCCC[C@@H]1NC(=O)[C@H](C(C)C)NC(=O)[C@H](CC2CCCCC2)NC(=O)[C@H](CCN)NC(=O)[C@@H](CC(C)C)NC(=O)[C@H](CCCN)NC(=O)[C@H](Cc2ccc(O)cc2)NC(=O)[C@H](Cc2ccc(-c3ccccc3)cc2)NC(=O)[C@H](C(C)C)NC(=O)[C@H](Cc2c[nH]c3ccccc23)NC(=O)[C@H](CC(=O)O)NC(=O)[C@H](Cc2ccc(OCC(=O)O)cc2)NC(=O)[C@H](CCCCNC(=N)N)NC(=O)CSC[C@@H](C(=O)N[C@@H](CCN)C(=O)NCCCCCCCCCCC(=O)O)NC1=O` [Compound 3409] ({CH2CO}-[hArg]Y(Carboxymethyl)DWV[Bip]Y[Orn][dL][Dab][Cha]VK(Ac)C[Dab][Aun]-OH; thioether N-14), the IC50 was found to be 15.6 nM.
With `CC(C)C[C@H]1NC(=O)[C@H](CCCN)NC(=O)[C@H](Cc2ccc(O)cc2)NC(=O)[C@H](Cc2ccc(-c3ccccc3)cc2)NC(=O)[C@H](C(C)C)NC(=O)[C@H](Cc2c[nH]c3ccccc23)NC(=O)[C@H](CC(=O)O)NC(=O)[C@H](Cc2ccc(OCC(=O)O)cc2)NC(=O)[C@H](CCCCNC(=N)N)NC(=O)CSC[C@@H](C(=O)N[C@@H](CCN)C(=O)NCCCCCCCCCCC(=O)O)NC(=O)[C@H](C(C)O)NC(=O)[C@H](C(C)C)NC(=O)[C@H](CC2CCCCC2)NC(=O)[C@H](CCN)NC1=O` (stereo partly drawn) [Compound 3410] ({CH2CO}-[hArg]Y(Carboxymethyl)DWV[Bip]Y[Orn][dL][Dab][Cha]V[Thr(3ξ)]C[Dab][Aun]-OH; thioether N-14), the IC50 came to 20.2 nM.
To `CC(C)C[C@H]1NC(=O)[C@H](CCCN)NC(=O)[C@H](Cc2ccc(O)cc2)NC(=O)[C@H](Cc2ccc(-c3ccccc3)cc2)NC(=O)[C@H](C(C)C)NC(=O)[C@H](Cc2c[nH]c3ccccc23)NC(=O)[C@H](CC(=O)O)NC(=O)[C@H](Cc2ccc(OCC(=O)O)cc2)NC(=O)[C@H](CCCNC(=N)N)NC(=O)CSC[C@@H](C(=O)N[C@@H](CCN)C(=O)NCCCCCCCCCCC(=O)O)NC(=O)[C@H](CCCNC(N)=O)NC(=O)[C@H](C(C)C)NC(=O)[C@H](CC2CCCCC2)NC(=O)[C@H](CCN)NC1=O` [Compound 3411] ({CH2CO}-RY(Carboxymethyl)DWV[Bip]Y[Orn][dL][Dab][Cha]V[Cit]C[Dab][Aun]-OH; thioether N-14) belongs 11 nM; to `CC(C)C[C@H]1NC(=O)[C@H](CCCN)NC(=O)[C@H](Cc2ccc(O)cc2)NC(=O)[C@H](Cc2ccc(-c3ccccc3)cc2)NC(=O)[C@H](C(C)C)NC(=O)[C@H](Cc2c[nH]c3ccccc23)NC(=O)[C@H](CC(=O)O)NC(=O)[C@H](Cc2ccc(OCC(=O)O)cc2)NC(=O)[C@H](CCCNC(=N)N)NC(=O)CSC[C@@H](C(=O)N[C@@H](CCN)C(=O)NCCCCCCCCCCC(=O)O)NC(=O)[C@H](CCO)NC(=O)[C@H](C(C)C)NC(=O)[C@H](CC2CCCCC2)NC(=O)[C@H](CCN)NC1=O` [Compound 3412] ({CH2CO}-RY(Carboxymethyl)DWV[Bip]Y[Orn][dL][Dab][Cha]V[hSer]C[Dab][Aun]-OH; thioether N-14), 16.4 nM; to `CC(C)C[C@H]1NC(=O)[C@H](CCCN)NC(=O)[C@H](Cc2ccc(O)cc2)NC(=O)[C@H](Cc2ccc(-c3ccccc3)cc2)NC(=O)[C@H](C(C)C)NC(=O)[C@H](Cc2c[nH]c3ccccc23)NC(=O)[C@H](CC(=O)O)NC(=O)[C@H](Cc2ccc(OCC(=O)O)cc2)NC(=O)[C@H](CCCNC(=N)N)NC(=O)CSC[C@@H](C(=O)N[C@@H](CCN)C(=O)NCCCCCCCCCCC(=O)O)NC(=O)[C@H](C(C)O)NC(=O)[C@H](C(C)C)NC(=O)[C@H](CC2CCCCC2)NC(=O)[C@H](CCN)NC1=O` (stereo partly drawn) [Compound 3413] ({CH2CO}-RY(Carboxymethyl)DWV[Bip]Y[Orn][dL][Dab][Cha]V[Thr(3ξ)]C[Dab][Aun]-OH; thioether N-14), 33.3 nM.
